Patent US7074785B2, “Δ1-pyrrolines used as pesticides” (Bayer Cropscience AG, priority 2001, dated 2006)
Where two headings read alike, the source gives them in different places.

What was measured:
[1] = logP determination by HPLC (reversed-phase C18, EEC Directive 79/831 Annex V.A8); type: physicochemical
Description: The logP values stated in the above tables and Preparation Examples are determined in accordance with EEC Directive 79/831 Annex V.A8 by HPLC (High Performance Liquid Chromatography) using a reversed-phase column (C 18). Temperature: 43° C.
In the acidic range at pH 2.3 the determination takes place using 0.1% aqueous phosphoric acid and acetonitrile as the mobile phases; linear gradient from 10% acetonitrile to 90% acetonitrile. Corresponding results are marked in the tables by “a)”
In the neutral range at pH 7.5 the determination takes place using 0.01 molar aqueous phosphate buffer solution and acetonitrile as the mobile phases; linear gradient from 10% acetonitrile to 90% acetonitrile. Corresponding results are marked in the tables by “b)”
Calibration is carried out using unbranched alkan-2-ones (having 3 to 16 carbon atoms), with known logP values (the logP values determined on the basis of the retention times using linear interpolation between two successive alkanones).

[2] = system: army worm (Spodoptera frugiperda) caterpillars; experiment: Spodoptera frugiperda test; type: in vivo; conditions: in Brassica oleracea, 168 h
[3] = system: larvae of the mustard beetle (Phaedon cochleariae); experiment: Phaedon larvae test; conditions: in Brassica oleracea, 168 h
[4] = system: greenhouse red spider mite (Tetranychus urticae); experiment: Tetranychus test (OP resistant/dip treatment); type: in vivo; conditions: 168 h
Description: Tetranychus Test (OP Resistant/Dip Treatment)
Solvent: 7 parts by weight of dimethylformamide
After the desired period of time, the effect in % is determined.

[5] = HPLC, acidic range pH 2.3, 0.1% aqueous phosphoric acid/acetonitrile; marked a), read-out: log P (pH 2.3)
[6] = HPLC, neutral range pH 7.5, 0.01 molar phosphate buffer/acetonitrile; marked b), read-out: log P (pH 7.5)
[7] = read-out: Kill rate in % after 7 d, 100 ppm, cabbage leaves dipped, Spodoptera frugiperda
[8] = read-out: Kill rate in % after 7 d, 100 ppm, cabbage leaves dipped, Phaedon cochleariae larvae
[9] = read-out: Kill rate in % after 7 d, 100 ppm, bean plants dipped, Tetranychus urticae OP-resistant
[10] = reversed-phase C18 HPLC column; HPLC, acidic range pH 2.3, 0.1% aqueous phosphoric acid/acetonitrile; marked a), read-out: log P (pH 2.3)
[11] = reversed-phase C18 HPLC column; HPLC, neutral range pH 7.5, 0.01 molar phosphate buffer/acetonitrile; marked b), read-out: log P (pH 7.5)
[12] = 100 ppm, cabbage leaves dipped, read-out: Kill rate in % after 7 d
[13] = 100 ppm, bean plants dipped, Tetranychus urticae OP-resistant, read-out: Kill rate in % after 7 d
[14] = read-out: Kill rate in % after 7 d

## COC(=O)Nc1ccc(-c2ccc(C3CCC(c4c(F)cccc4F)=N3)cc2)cc1 (stereo not drawn) [Compound 1, methyl 4′-[5-(2,6-difluorophenyl)-3,4-dihydro-2H-pyrrol-2-yl]-1,1′-biphenyl-4-ylcarbamate]
[1]; [5]
  chromatographic logP: 2.31
[1]; [6]
  chromatographic logP: 3.52
[2]; [7]
  pest or weed control at 100 ppm: ≥ 95%
[3]; [8]
  pest or weed control at 100 ppm: ≥ 85%
[4]; [9]
  pest or weed control at 100 ppm: ≥ 85%

## CCCOC(=O)Nc1ccc(-c2ccc(C3CCC(c4c(F)cccc4F)=N3)cc2)cc1 (stereo not drawn) [Compound 2, n-propyl 4′-[5-(2,6-difluorophenyl)-3,4-dihydro-2H-pyrrol-2-yl]-1,1′-biphenyl-4-ylcarbamate]
[1]; [5]
  chromatographic logP: 3.02
[1]; [6]
  chromatographic logP: 4.24
[2]; [7]
  pest or weed control at 100 ppm: ≥ 95%
[3]; [8]
  pest or weed control at 100 ppm: ≥ 85%
[4]; [9]
  pest or weed control at 100 ppm: ≥ 85%

## CCCCOC(=O)N(C)c1ccc(-c2ccc(C3CCC(c4c(F)cccc4F)=N3)cc2)cc1 (stereo not drawn) [Compound 3, n-butyl 4′-[5-(2,6-difluorophenyl)-3,4-dihydro-2H-pyrrol-2-yl]-1,1′-biphenyl-4-yl(methyl)carbamate]
[1]; [5]
  chromatographic logP: 3.76
[1]; [6]
  chromatographic logP: 4.92

## O=C1OCCN1c1ccc(-c2ccc(C3CCC(c4c(F)cccc4F)=N3)cc2)cc1 (stereo not drawn) [Compound 4, 3-{4′-[5-(2,6-difluorophenyl)-3,4-dihydro-2H -pyrrol-2-yl]-1,1′-biphenyl-4-yl}-1,3-oxazolidin-2-one]
[1]; [10]
  chromatographic logP: 2.13
[1]; [11]
  chromatographic logP: 3.28
[2]; [12]
  pest or weed control at 100 ppm: ≥ 95%
[4]; [13]
  pest or weed control at 100 ppm: ≥ 85%

## O=C(Nc1ccc(-c2ccc(C3CCC(c4c(F)cccc4F)=N3)cc2)cc1)N1CCOCC1 (stereo not drawn) [Compound 5, N-{4′-[5-(2,6-difluorophenyl)-3,4-dihydro-2H-pyrrol-2-yl]-1,1 ′-biphenyl-4-yl}-4-morpholinecarboxamide]
[1]; [10]
  chromatographic logP: 1.87
[1]; [11]
  chromatographic logP: 2.96
[2]; [12]
  pest or weed control at 100 ppm: ≥ 95%

## CCCCOC(=O)Nc1ccc(-c2ccc(C3CCC(c4c(F)cccc4F)=N3)cc2)cc1 (stereo not drawn) [Compound 9]
[1]; [5]
  chromatographic logP: 3.44
[1]; [6]
  chromatographic logP: 4.6
[2]; [7]
  pest or weed control at 100 ppm: ≥ 95%
[3]; [8]
  pest or weed control at 100 ppm: 100%

## O=C(Nc1ccc(-c2ccc(C3CCC(c4c(F)cccc4F)=N3)cc2)cc1)OC1CCCCC1 (stereo not drawn) [Compound 10]
[1]; [5]
  chromatographic logP: 3.88
[1]; [6]
  chromatographic logP: 1.68
[2]; [7]
  pest or weed control at 100 ppm: ≥ 95%
[3]; [8]
  pest or weed control at 100 ppm: 100%

## O=C(Nc1ccc(-c2ccc(C3CCC(c4c(F)cccc4F)=N3)cc2)cc1)N1CCCC1 (stereo not drawn) [Compound 11]
[1]; [10]
  chromatographic logP: 2.11
[3]; [14]
  pest or weed control at 100 ppm: 100%

## O=C(Nc1ccc(-c2ccc(C3CCC(c4c(F)cccc4F)=N3)cc2)cc1)N1CCCCC1 (stereo not drawn) [Compound 12]
[1]; [10]
  chromatographic logP: 2.53
[1]; [11]
  chromatographic logP: 3.71
[2]; [12]
  pest or weed control at 100 ppm: ≥ 95%
[3]; [14]
  pest or weed control at 100 ppm: 100%

## CCCCN(CC)C(=O)Nc1ccc(-c2ccc(C3CCC(c4c(F)cccc4F)=N3)cc2)cc1 (stereo not drawn) [Compound 14]
[1]; [10]
  chromatographic logP: 3.18
[1]; [11]
  chromatographic logP: 4.36
[2]; [12]
  pest or weed control at 100 ppm: ≥ 95%

## CC(C)C(C)OC(=O)Nc1ccc(-c2ccc(C3CCC(c4c(F)cccc4F)=N3)cc2)cc1 (stereo not drawn) [Compound 16]
[1]; [5]
  chromatographic logP: 3.82
[1]; [6]
  chromatographic logP: 4.77
[3]; [8]
  pest or weed control at 100 ppm: ≥ 85%

## CCCC(C)OC(=O)Nc1ccc(-c2ccc(C3CCC(c4c(F)cccc4F)=N3)cc2)cc1 (stereo not drawn) [Compound 17]
[1]; [6]
  chromatographic logP: 4.82
[2]; [7]
  pest or weed control at 100 ppm: ≥ 95%
[4]; [9]
  pest or weed control at 100 ppm: ≥ 85%

## CCCCCOC(=O)Nc1ccc(-c2ccc(C3CCC(c4c(F)cccc4F)=N3)cc2)cc1 (stereo not drawn) [Compound 18]
[1]; [5]
  chromatographic logP: 3.87
[1]; [6]
  chromatographic logP: 4.89
[2]; [7]
  pest or weed control at 100 ppm: ≥ 95%
[3]; [8]
  pest or weed control at 100 ppm: ≥ 85%

## CCCCCCOC(=O)Nc1ccc(-c2ccc(C3CCC(c4c(F)cccc4F)=N3)cc2)cc1 (stereo not drawn) [Compound 19]
[1]; [5]
  chromatographic logP: 4.46
[1]; [6]
  chromatographic logP: 5.26
[3]; [8]
  pest or weed control at 100 ppm: ≥ 85%
[4]; [9]
  pest or weed control at 100 ppm: ≥ 85%

## CC(OC(=O)Nc1ccc(-c2ccc(C3CCC(c4c(F)cccc4F)=N3)cc2)cc1)c1ccccc1 (stereo not drawn) [Compound 20]
[1]; [5]
  chromatographic logP: 3.63
[2]; [7]
  pest or weed control at 100 ppm: ≥ 95%
[3]; [8]
  pest or weed control at 100 ppm: ≥ 85%

## CC(C)CCOC(=O)Nc1ccc(-c2ccc(C3CCC(c4c(F)cccc4F)=N3)cc2)cc1 (stereo not drawn) [Compound 21]
[1]; [5]
  chromatographic logP: 3.72
[2]; [7]
  pest or weed control at 100 ppm: ≥ 95%
[3]; [8]
  pest or weed control at 100 ppm: ≥ 85%

## O=C(Nc1ccccc1)Nc1ccc(-c2ccc(C3CCC(c4c(F)cccc4F)=N3)cc2)cn1 (stereo not drawn) [Compound 22]
[1]; [10]
  chromatographic logP: 2.71
[1]; [11]
  chromatographic logP: 3.98
[2]; [12]
  pest or weed control at 100 ppm: ≥ 95%
[4]; [13]
  pest or weed control at 100 ppm: ≥ 85%

## CC(C)(C)COC(=O)Nc1ccc(-c2ccc(C3CCC(c4c(F)cccc4F)=N3)cc2)cc1 (stereo not drawn) [Compound 23]
[1]; [5]
  chromatographic logP: 3.76
[2]; [7]
  pest or weed control at 100 ppm: ≥ 95%
[4]; [9]
  pest or weed control at 100 ppm: ≥ 85%
